Like-named read-outs stand apart in the source and are kept apart here.
Key:
MDA-MB-468 = experiment: NCI-60 five-dose SRB assay; type: cell-based; details: Homo sapiens; MDA-MB-468, breast cancer
U251 = experiment: cells; type: cell-based; details: U251, CNS cancer
COLO 205 = experiment: NCI-60 five-dose SRB assay; type: cell-based; details: Homo sapiens; COLO 205, colon cancer
NCI-H522 = experiment: NCI-60 five-dose SRB assay; type: cell-based, human; details: Homo sapiens, NCI-H522, NCI-H522, non-small cell lung cancer
HT29 = experiment: NCI-60 five-dose SRB assay; type: cell-based, human; details: HT29, colon cancer
L132 normal cell = experiment: MTT antiproliferative assay; details: Homo sapiens, L132, 72 h, read-out: GI50 L132
From the text: (§1) These cellular outcomes define the impact of BCR-ABL inhibition on the proliferation of K-562 cells.

SK-MEL-2 = experiment: NCI-60 five-dose SRB assay; type: cell-based; details: Homo sapiens; SK-MEL-2, melanoma
NCI-H460 = experiment: cells; type: cell-based
HOP-92 = experiment: NCI-60 five-dose SRB assay; type: cell-based; details: Homo sapiens; HOP-92, non-small cell lung cancer
SF-539 = experiment: NCI-60 five-dose SRB assay; type: cell-based; details: Homo sapiens; SF-539, CNS cancer
BCR-ABL^WT = BCR-ABL^WT (Homo sapiens, UniProt P00519); experiment: In vitro kinase screening (RBC), BCR-ABL^WT; type: biochemical; details: 10-dose IC50 mode, 3-fold serial dilution, 10 μM ATP
Sequence of BCR-ABL^WT (P00519 27-1130): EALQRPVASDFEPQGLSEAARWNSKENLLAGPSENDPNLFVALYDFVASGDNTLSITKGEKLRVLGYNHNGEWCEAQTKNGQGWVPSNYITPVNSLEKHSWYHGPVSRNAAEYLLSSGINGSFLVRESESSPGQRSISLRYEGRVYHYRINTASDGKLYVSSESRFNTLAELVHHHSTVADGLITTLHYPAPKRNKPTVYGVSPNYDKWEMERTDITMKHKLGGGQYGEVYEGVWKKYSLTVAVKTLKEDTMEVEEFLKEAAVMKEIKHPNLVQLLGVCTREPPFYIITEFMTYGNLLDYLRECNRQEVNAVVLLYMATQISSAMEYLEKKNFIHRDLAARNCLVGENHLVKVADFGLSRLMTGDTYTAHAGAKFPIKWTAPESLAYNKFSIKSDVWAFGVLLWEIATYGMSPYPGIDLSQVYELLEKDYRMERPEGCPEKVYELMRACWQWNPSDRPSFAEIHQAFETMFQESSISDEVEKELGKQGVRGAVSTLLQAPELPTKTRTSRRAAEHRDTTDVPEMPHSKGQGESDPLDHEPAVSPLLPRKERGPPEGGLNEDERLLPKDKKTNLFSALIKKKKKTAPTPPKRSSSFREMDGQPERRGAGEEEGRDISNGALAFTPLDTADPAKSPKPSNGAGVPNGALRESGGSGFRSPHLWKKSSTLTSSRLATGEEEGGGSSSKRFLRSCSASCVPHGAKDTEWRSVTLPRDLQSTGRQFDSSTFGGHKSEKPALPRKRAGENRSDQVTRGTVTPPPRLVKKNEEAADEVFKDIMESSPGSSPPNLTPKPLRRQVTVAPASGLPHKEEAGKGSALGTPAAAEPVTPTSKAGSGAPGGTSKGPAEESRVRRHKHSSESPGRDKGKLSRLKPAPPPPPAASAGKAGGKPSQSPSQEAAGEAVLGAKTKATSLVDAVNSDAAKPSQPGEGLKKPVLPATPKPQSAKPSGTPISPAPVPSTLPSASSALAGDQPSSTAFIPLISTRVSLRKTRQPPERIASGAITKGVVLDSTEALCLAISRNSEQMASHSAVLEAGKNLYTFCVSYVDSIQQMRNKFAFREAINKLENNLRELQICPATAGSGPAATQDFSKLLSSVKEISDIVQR

TK-10 = experiment: NCI-60 five-dose SRB assay; type: cell-based; details: Homo sapiens; TK-10, renal cancer
CCRF-CEM = experiment: NCI-60 five-dose SRB assay; type: cell-based; details: Homo sapiens, leukaemia
UO-31 = experiment: NCI-60 five-dose SRB assay; type: cell-based, human; details: UO-31, renal cancer
SK-MEL-28 = experiment: NCI-60 five-dose SRB assay; type: cell-based; details: Homo sapiens; SK-MEL-28, melanoma
MDA-MB-435 = experiment: NCI-60 five-dose SRB assay; type: cell-based; details: Homo sapiens; MDA-MB-435, melanoma
SW-620 = experiment: NCI-60 five-dose SRB assay; type: cell-based; details: Homo sapiens; SW-620, colon cancer
OVCAR-8 = experiment: NCI-60 five-dose SRB assay; type: cell-based; details: Homo sapiens; OVCAR-8, ovarian cancer
LOX IMVI = experiment: NCI-60 five-dose SRB assay; type: cell-based; details: Homo sapiens, melanoma
HS 578T = experiment: NCI-60 five-dose SRB assay; type: cell-based; details: Homo sapiens, breast cancer
OVCAR-3 = experiment: NCI-60 five-dose SRB assay; type: cell-based, human; details: OVCAR-3, ovarian cancer
M14 = experiment: NCI-60 five-dose SRB assay; type: cell-based, human; details: M14, melanoma
HCT-116 = experiment: NCI-60 five-dose SRB assay; type: cell-based; details: Homo sapiens; HCT-116, colon cancer
UACC-62 = experiment: NCI-60 five-dose SRB assay; type: cell-based; details: Homo sapiens; UACC-62, melanoma
SK-MEL-5 = experiment: cells; type: cell-based; details: SK-MEL-5, melanoma
RXF 393 = experiment: NCI-60 five-dose SRB assay; type: cell-based; details: Homo sapiens; RXF 393, renal cancer
NCI-H322M = experiment: NCI-60 five-dose SRB assay; type: cell-based, human
ACHN = experiment: NCI-60 five-dose SRB assay; type: cell-based, human; details: renal cancer
SK-OV-3 = experiment: NCI-60 five-dose SRB assay; type: cell-based; details: Homo sapiens; SK-OV-3, ovarian cancer
NCI-H226 = experiment: NCI-60 five-dose SRB assay; type: cell-based; details: Homo sapiens; NCI-H226, non-small cell lung cancer
T-47D = experiment: NCI-60 five-dose SRB assay; type: cell-based; details: Homo sapiens, T47D, breast cancer
MDA-MB-231 = experiment: NCI-60 five-dose SRB assay; type: cell-based; details: Homo sapiens; MDA-MB-231, breast cancer
786-0 = experiment: NCI-60 five-dose SRB assay; type: cell-based; details: Homo sapiens; 786-0, renal cancer
leukaemia K-562 cells = experiment: MTT antiproliferative assay; details: for GI50: Homo sapiens, K562, 72 h, read-out: GI50 K-562
From the text: as §1

SNB-75 = experiment: NCI-60 five-dose SRB assay; type: cell-based, human; details: SNB-75, CNS cancer
NCI 60-cell line panel = experiment: cells; type: cell-based
[1] = Homo sapiens, read-out: LC50 (the source's name)

COc1ccccc1-c1ccc2nc(NC(=O)Nc3cc(C(F)(F)F)cc(C(F)(F)F)c3)sc2c1 [Compound 2e]
GI50 (MDA-MB-468): 1520 nM | GI50 (U251; Homo sapiens, U-251): 2310 nM | CC50 (U251; Homo sapiens, U-251, read-out: LC50 (the source's name)): 34.4 µM | TGI (U251): 10.3 µM | GI50 (COLO 205): 1650 nM | GI50 (NCI-H522): 1760 nM | TGI (HT29): 9.21 µM | GI50 (HT29; Homo sapiens, HT-29): 2150 nM | CC50 (HT29; Homo sapiens, HT-29, read-out: LC50 (the source's name)): 33 µM | GI50 (L132 normal cell): 35.1 µM | GI50 (SK-MEL-2): 2090 nM | GI50 (NCI-H460; Homo sapiens, NCI-H460, NCI-H460, non-small cell lung cancer): 2260 nM | CC50 (NCI-H460; Homo sapiens, NCI-H460, NSCL cancer, read-out: LC50 (the source's name)): 23.5 µM | TGI (NCI-H460; NCI-H460, NSCL cancer): 6.12 µM | GI50 (HOP-92): 1190 nM | GI50 (SF-539): 1990 nM | IC50 (BCR-ABL^WT): 4.09 µM | GI50 (TK-10): 4.03 µM | GI50 (CCRF-CEM): 2430 nM | GI50 (UO-31; Homo sapiens): 1790 nM | CC50 (UO-31; [1]): 9.29 µM | TGI (UO-31): 4.07 µM | GI50 (SK-MEL-28): 2510 nM | GI50 (MDA-MB-435): 2270 nM | GI50 (SW-620): 3.04 µM | GI50 (OVCAR-8): 3.04 µM | GI50 (LOX IMVI): 1680 nM | GI50 (HS 578T): 2350 nM | GI50 (OVCAR-3; Homo sapiens): 1580 nM | LC50 (concentration killing 50% of cells) (OVCAR-3; Homo sapiens): 16.7 µM | TGI (OVCAR-3): 4.58 µM | GI50 (M14; Homo sapiens): 1540 nM | LC50 (concentration killing 50% of cells) (M14; Homo sapiens): 6.73 µM | TGI (M14): 3.22 µM | GI50 (HCT-116): 1070 nM | GI50 (UACC-62): 1560 nM | GI50 (SK-MEL-5; Homo sapiens): 1570 nM | LC50 (50% lethal concentration) (SK-MEL-5; Homo sapiens): 5.64 µM | TGI (SK-MEL-5): 2.98 µM | GI50 (RXF 393): 2190 nM | CC50 (NCI-H322M; Homo sapiens, NSCL cancer, read-out: LC50 (the source's name)): 37 µM | GI50 (NCI-H322M; Homo sapiens, non-small cell lung cancer): 2780 nM | TGI (NCI-H322M; NSCL cancer): 9.06 µM | GI50 (ACHN; Homo sapiens): 2140 nM | CC50 (ACHN; [1]): 28.2 µM | TGI (ACHN): 7.71 µM | GI50 (SK-OV-3): 2920 nM | GI50 (NCI-H226): 2160 nM | GI50 (T-47D): 2160 nM | GI50 (MDA-MB-231): 1950 nM | GI50 (786-0): 1440 nM | GI50 (leukaemia K-562 cells): 13.9 µM | SI: selectivity index (GI50 (L132)/GI50 (K562)) (leukaemia K-562 cells; MTT, 72 h): 2.5 | GI50 (SNB-75; Homo sapiens): 2250 nM | CC50 (SNB-75; [1]): 45.3 µM | TGI (SNB-75): 11.8 µM | GI50 (NCI 60-cell line panel; Homo sapiens, 60 cell, all tested melanoma cell lines, read-out: GI50): 1540 to 2510 nM | GI50 (NCI 60-cell line panel; Homo sapiens, COLO205, HCC-2998, HCT-116 and HCT-15 colon cancer cells, read-out: GI50): 1070 to 2650 nM | GI50 (NCI 60-cell line panel; all examined cell lines): one-digit micromolar

Cc1ccc(NC(=O)c2ccc(CN3CCN(C)CC3)cc2)cc1Nc1nccc(-c2cccnc2)n1 [Imatinib]
GI50 (L132 normal cell): > 10 µM | GI50 (leukaemia K-562 cells): 0.8 µM
